Reference: patent US20140017216A1, “PESTICIDAL MIXTURES” (BAYER CROPSCIENCE LP, priority 2011, published 2014)

Test system: southern armyworm (Spodoptera eridania)
Test: Test B.7: control of southern armyworm, leaf-dip on lima bean leaves, larval mortality
Format: in vivo
Details: single active, neonate larvae, 4 days
Protocol: For evaluating control of southern armyworm (Spodoptera eridania) the test unit consists of Petri dishes containing eight-day-old Henderson bush lima bean leaves and 10 neonate S. eridania larvae.
The compounds or mixtures are formulated using a solution containing […] water and 0.05 vol % of a surfactant (Kinetic). Leaves are dipped into different concentrations of formulated compounds or mixtures and allowed to dry. Four replications are performed.
For experimental mixtures in these tests identical volumes of both mixing partners at the desired concentrations respectively, are mixed together.
After application, Petri dishes are incubated in the dark at 26±1° C., for 4 days. Larval mortality is visually assessed.
Metaflumizone at rates of 2.5 and 5.0 kg ai/ha and Streptomyces galbus strain M1064 at rates of 0.69. 1.39, and 2.79 kg ai/ha were tested singly and in combination for control of southern armyworm, Spodoptera eridania in the laboratory.

`N#Cc1ccc(CC(=NNC(=O)Nc2ccc(OC(F)(F)F)cc2)c2cccc(C(F)(F)F)c2)cc1` (mixture of isomers) [Metaflumizone, metaflumizone] was tested, and the “Observed Mortality” value (application rate 2.5 kg ai/ha) was 15.0% and the “Observed Mortality” value (application rate 5.0 kg ai/ha) was 47.5%.
